# In ChEMBL document CHEMBL1649265, “Antimicrobial susceptibilities of Mycoplasma genitalium strains examined by broth dilution and quantitative PCR” (2009):
# Key:
# Type in all cases: functional
# Conditions in all cases: Mycoplasmoides genitalium
# Mycoplasma genitalium [1] = assay: Antibacterial activity against Mycoplasma genitalium by broth dilution method
# Mycoplasma genitalium [2] = assay: Antibacterial activity against Mycoplasma genitalium by quantitative TaqMan PCR method
# Mycoplasma genitalium [3] = assay: Antibacterial activity against Mycoplasma genitalium G37 by broth dilution method
# Mycoplasma genitalium [4] = assay: Antibacterial activity against Mycoplasma genitalium M30 by broth dilution method
# Mycoplasma genitalium [5] = assay: Antibacterial activity against Mycoplasma genitalium R32 by broth dilution method
# Mycoplasma genitalium [6] = assay: Antibacterial activity against Mycoplasma genitalium TW10-5G by broth dilution method
# Mycoplasma genitalium [7] = assay: Antibacterial activity against Mycoplasma genitalium TW10-6G by broth dilution method
# Mycoplasma genitalium [8] = assay: Antibacterial activity against Mycoplasma genitalium TW48-5G by broth dilution method
# Mycoplasma genitalium [9] = assay: Antibacterial activity against Mycoplasma genitalium UTMB-10G by broth dilution method
# Mycoplasma genitalium [10] = assay: Antibacterial activity against Mycoplasma genitalium M2282 by broth dilution method
# Mycoplasma genitalium [11] = assay: Antibacterial activity against Mycoplasma genitalium M2300 by broth dilution method
# Mycoplasma genitalium [12] = assay: Antibacterial activity against Mycoplasma genitalium M2321 by broth dilution method
# Mycoplasma genitalium [13] = assay: Antibacterial activity against Mycoplasma genitalium M2341 by broth dilution method
# Mycoplasma genitalium [14] = assay: Antibacterial activity against Mycoplasma genitalium M6257 by broth dilution method
# Mycoplasma genitalium [15] = assay: Antibacterial activity against Mycoplasma genitalium M6280 by broth dilution method
# Mycoplasma genitalium [16] = assay: Antibacterial activity against Mycoplasma genitalium M6285 by broth dilution method
# Mycoplasma genitalium [17] = assay: Antibacterial activity against Mycoplasma genitalium M6286 by broth dilution method
# Mycoplasma genitalium [18] = assay: Antibacterial activity against Mycoplasma genitalium M6328 by broth dilution method
# Mycoplasma genitalium [19] = assay: Antibacterial activity against Mycoplasma genitalium M6090 by broth dilution method
# Mycoplasma genitalium [20] = assay: Antibacterial activity against Mycoplasma genitalium M6151 by broth dilution method
# Mycoplasma genitalium [21] = assay: Antibacterial activity against Mycoplasma genitalium M6282 by broth dilution method
# Mycoplasma genitalium [22] = assay: Antibacterial activity against Mycoplasma genitalium M6283 by broth dilution method
# Mycoplasma genitalium [23] = assay: Antibacterial activity against Mycoplasma genitalium M6284 by broth dilution method
# Mycoplasma genitalium [24] = assay: Antibacterial activity against Mycoplasma genitalium M6287 by broth dilution method
MIC50 (Mycoplasma genitalium [2]) [µg/mL],MIC90 (Mycoplasma genitalium [2]) [µg/mL],MIC (Mycoplasma genitalium [3]; read-out: MIC) [µg/mL],MIC (Mycoplasma genitalium [4]; read-out: MIC) [µg/mL],MIC (Mycoplasma genitalium [5]; read-out: MIC) [µg/mL],MIC (Mycoplasma genitalium [6]; read-out: MIC) [µg/mL],MIC (Mycoplasma genitalium [7]; read-out: MIC) [µg/mL],MIC (Mycoplasma genitalium [8]; read-out: MIC) [µg/mL],MIC (Mycoplasma genitalium [9]; read-out: MIC) [µg/mL],MIC (Mycoplasma genitalium [10]) [µg/mL],MIC (Mycoplasma genitalium [11]) [µg/mL],MIC (Mycoplasma genitalium [12]) [µg/mL],MIC (Mycoplasma genitalium [13]) [µg/mL],MIC (Mycoplasma genitalium [14]) [µg/mL],MIC (Mycoplasma genitalium [15]) [µg/mL],MIC (Mycoplasma genitalium [16]) [µg/mL],MIC (Mycoplasma genitalium [17]) [µg/mL],MIC (Mycoplasma genitalium [18]) [µg/mL],MIC (Mycoplasma genitalium [19]) [µg/mL],MIC (Mycoplasma genitalium [20]) [µg/mL],Compound,also measured
0.004,0.008,–,–,–,–,–,–,–,–,–,–,–,–,–,–,–,–,–,–,CC[C@H]1OC(=O)[C@H](C)[C@@H](O[C@H]2C[C@@](C)(OC)[C@@H](O)[C@H](C)O2)[C@H](C)[C@@H](O[C@@H]2O[C@H](C)C[C@H](N(C)C)[C@H]2O)[C@](C)(O)C[C@@H](C)CN(C)[C@H](C)[C@@H](O)[C@]1(C)O [AZITHROMYCIN],MIC50 (Mycoplasma genitalium [1]): 0.001 µg/mL; MIC90 (Mycoplasma genitalium [1]): 0.002 µg/mL; MIC (Mycoplasma genitalium [3]): 0.001 µg/mL; MIC (Mycoplasma genitalium [4]): 0.001 µg/mL; MIC (Mycoplasma genitalium [5]): 0.001 µg/mL; MIC (Mycoplasma genitalium [6]): 0.001 µg/mL; MIC (Mycoplasma genitalium [7]): 0.001 µg/mL; MIC (Mycoplasma genitalium [8]): 0.001 µg/mL; MIC (Mycoplasma genitalium [9]): 0.001 µg/mL
2,8,0.004,0.004,0.004,0.004,0.004,0.004,0.004,0.063,0.063,0.063,0.063,0.063,0.063,0.063,0.063,0.063,0.063,0.063,O=C(O)c1cn(C2CC2)c2cc(N3CCNCC3)c(F)cc2c1=O [CIPROFLOXACIN],MIC (Mycoplasma genitalium [21]): 0.063 µg/mL; MIC (Mycoplasma genitalium [22]): 0.063 µg/mL; MIC (Mycoplasma genitalium [23]): 0.063 µg/mL; MIC (Mycoplasma genitalium [24]): 0.063 µg/mL
0.032,0.063,–,–,–,–,–,–,–,–,–,–,–,–,–,–,–,–,–,–,CC[C@H]1OC(=O)[C@H](C)[C@@H](O[C@H]2C[C@@](C)(OC)[C@@H](O)[C@H](C)O2)[C@H](C)[C@@H](O[C@@H]2O[C@H](C)C[C@H](N(C)C)[C@H]2O)[C@](C)(OC)C[C@@H](C)C(=O)[C@H](C)[C@@H](O)[C@]1(C)O [CLARITHROMYCIN],MIC50 (Mycoplasma genitalium [1]): 0.004 µg/mL; MIC90 (Mycoplasma genitalium [1]): 0.008 µg/mL; MIC (Mycoplasma genitalium [3]): 0.002 µg/mL; MIC (Mycoplasma genitalium [4]): 0.002 µg/mL; MIC (Mycoplasma genitalium [5]): 0.002 µg/mL; MIC (Mycoplasma genitalium [6]): 0.002 µg/mL; MIC (Mycoplasma genitalium [7]): 0.002 µg/mL; MIC (Mycoplasma genitalium [8]): 0.002 µg/mL; MIC (Mycoplasma genitalium [9]): 0.002 µg/mL
0.25,0.5,0.063,0.063,0.063,0.063,0.063,0.063,0.063,0.063,0.063,0.063,0.063,0.063,0.063,0.063,0.063,0.063,0.063,0.063,C[C@H]1c2cccc(O)c2C(=O)C2=C(O)[C@]3(O)C(=O)C(C(N)=O)=C(O)[C@@H](N(C)C)[C@@H]3[C@@H](O)[C@@H]21.O [DOXYCYCLINE],MIC50 (Mycoplasma genitalium [1]; read-out: MIC50): 0.125 µg/mL; MIC90 (Mycoplasma genitalium [1]; read-out: MIC90): 0.25 µg/mL; MIC (Mycoplasma genitalium [21]): 0.063 µg/mL; MIC (Mycoplasma genitalium [22]): 0.063 µg/mL; MIC (Mycoplasma genitalium [23]): 0.063 µg/mL; MIC (Mycoplasma genitalium [24]): 0.063 µg/mL
0.5,0.5,0.125,0.125,0.125,0.125,0.125,0.125,0.125,0.031,0.031,0.031,0.031,0.031,0.031,0.031,0.031,0.031,0.031,0.031,COc1c(N2CCNC(C)C2)c(F)cc2c(=O)c(C(=O)O)cn(C3CC3)c12 (stereo not drawn) [GATIFLOXACIN],MIC50 (Mycoplasma genitalium [1]; read-out: MIC50): 0.25 µg/mL; MIC90 (Mycoplasma genitalium [1]; read-out: MIC90): 0.25 µg/mL; MIC (Mycoplasma genitalium [21]): 0.031 µg/mL; MIC (Mycoplasma genitalium [22]): 0.031 µg/mL; MIC (Mycoplasma genitalium [23]): 0.031 µg/mL; MIC (Mycoplasma genitalium [24]): 0.031 µg/mL
